Experimental data from US20220119375A1, “3-ARYLOXY-3-ARYL-PROPYLAMINE COMPOUND AND USES THEREOF” (Zhangzhou Pien Tze Huang Pharmaceutical Co., Ltd., priority 2018, published 2022).
Where two headings read alike, the source gives them in different places.

Key:
[1] = system: ICR mice, acetic acid writhing pain model; assay: mice acetic acid writhing pain model; format: in vivo, mouse; details: 10 mg/kg by gavage, within 30 min; saline group 49 times
Protocol: Male ICR mice, weighed 22-25 g, were fasted but allowed to drink water freely for 2 h before administration. All ICR mice were weighed and grouped randomly, and the number of animals in each group was >10. […] The test compound was IC-1 (the compound prepared in Example 9), and the administration dosages were 5 mg/kg and 10 mg/kg. […] When concave abdomen, stretched trunk and hind claw, and high buttocks appeared, one number point was recorded. […] After administration, the fewer visceral pains in the mice were, the stronger the analgesic effect of the compound was.

[2] = molecular target: T1, TRPA1 (Mus musculus, UniProt Q8BLA8); assay: IonWorks Barracuda (IWB) automated patch clamp detection of TRPA1 inhibitory activity; format: cell-based, mouse (mTRPA1); details: for IC50: automated patch clamp (IWB)
T1 construct: expressed in transfected cells; host or cells: HEK293
T1 sequence (Q8BLA8 whole entry): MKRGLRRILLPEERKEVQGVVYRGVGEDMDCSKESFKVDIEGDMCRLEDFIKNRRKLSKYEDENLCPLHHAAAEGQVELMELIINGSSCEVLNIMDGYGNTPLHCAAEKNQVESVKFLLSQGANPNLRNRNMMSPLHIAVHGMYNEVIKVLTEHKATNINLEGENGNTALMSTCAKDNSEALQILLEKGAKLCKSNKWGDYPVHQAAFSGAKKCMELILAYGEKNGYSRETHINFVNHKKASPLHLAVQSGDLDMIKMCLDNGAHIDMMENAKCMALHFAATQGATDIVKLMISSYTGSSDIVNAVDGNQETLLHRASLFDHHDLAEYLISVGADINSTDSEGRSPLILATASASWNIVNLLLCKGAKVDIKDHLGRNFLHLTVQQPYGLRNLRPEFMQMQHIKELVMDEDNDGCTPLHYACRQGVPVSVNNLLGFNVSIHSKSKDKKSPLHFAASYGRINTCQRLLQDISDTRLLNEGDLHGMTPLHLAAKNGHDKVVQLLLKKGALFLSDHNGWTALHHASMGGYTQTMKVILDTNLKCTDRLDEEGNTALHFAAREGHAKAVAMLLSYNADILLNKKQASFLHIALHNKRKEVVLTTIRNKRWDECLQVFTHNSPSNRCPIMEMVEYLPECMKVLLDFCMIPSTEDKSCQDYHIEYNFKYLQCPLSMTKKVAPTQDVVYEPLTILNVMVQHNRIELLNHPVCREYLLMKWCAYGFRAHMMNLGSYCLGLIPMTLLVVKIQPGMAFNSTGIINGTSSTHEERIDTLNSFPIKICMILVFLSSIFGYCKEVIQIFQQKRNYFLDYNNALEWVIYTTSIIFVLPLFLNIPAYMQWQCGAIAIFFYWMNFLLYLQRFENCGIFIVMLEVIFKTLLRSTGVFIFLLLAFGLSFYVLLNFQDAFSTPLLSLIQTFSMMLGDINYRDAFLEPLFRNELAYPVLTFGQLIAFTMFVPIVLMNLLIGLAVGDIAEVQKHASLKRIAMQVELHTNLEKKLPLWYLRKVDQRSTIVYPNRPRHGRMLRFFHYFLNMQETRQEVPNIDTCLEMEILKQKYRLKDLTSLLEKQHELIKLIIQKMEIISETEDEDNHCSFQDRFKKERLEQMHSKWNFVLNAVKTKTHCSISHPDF
Protocol: The inhibitory activity of some compounds in the Examples of present invention on transient receptor potential channel protein TRPA1 was tested in this example. The compound of formula A (WO2010075353) was used as a positive control compound: […]
IonWorks Barracuda (IWB) automated patch clamp detection was used as test method: HEK293 cells stably expressing TRPA1 were placed in DMEM medium containing 15 μg/mL Blasticidin S HCl, 200 μg/mL Hygromycin B and 10% FBS in the T175 culture flask, and cultured in 37° C., 5% CO2 incubator. When the cell density reached about 80%, the culture medium was removed, rinsed with phosphate buffered saline (PBS) without calcium and magnesium. 3 mL of Trypsin was added to digest for 2 min, 7 mL of culture medium was added to terminate the digestion. The cells were collected to 15 mL centrifuge tube and centrifuged at 800 rpm for 3 min. After the supernatant was removed, the cells were added to appropriate volume of extracellular fluid for re-suspending, and the cell density was controlled at 2-3×10^6/mL for IWB experiment. Extracellular fluid formulation (in mM): 140 NaCl, 5 KCl, 1 MgCl2, 10 HEPES, 0.5 EGTA, 10 Glucose (pH 7.4); intracellular fluid formulation (in mM): 140 CsCl, 10 HEPES, 5 EGTA, 0.1 CaCl2, 1 MgCl2 (pH 7.2). 28 mg/mL of amphotericin B was freshly prepared with DMSO on the day of experiment, and then final concentration of 0.1 mg/mL was prepared with intracellular fluid.
Population patch clamp (PPC) plate was used in IWB experiment. The entire detection process was automatically carried out by the instrument. Extracellular fluid was added into 384 wells of PPC plate, and 6 µL of the intracellular fluid was added into plenum (under the PPC plate), 6 µL of cell fluid was added for sealing test, and finally the intracellular fluid in plenum was replaced with amphotericin B-containing intracellular fluid to establish a whole-cell recording mode after perforating sealed cells. The sampling frequency for recording TPRA1 current was 10 kHz, the cells were clamped at 0 mV, the voltage stimulation command (channel protocol) was a ramp voltage from −100 mV to +100 mV for 300 ms. This voltage stimulation was applied every 10 s, mTRPA1 current was induced by 300 µM AITC.
Data recording and current amplitude measurement export were carried out by IWB software (version 2.5.3, Molecular Devices Corporation, Union City, Calif.). No statistics was recorded for holes with sealing impedance lower than 20 MΩ. The original current data was corrected by software for leakage reduction. TRPA1 current amplitude was measured at +100 mV. […] If IC50 value of HC030031 exceeded 3 times the average IC50 value previously obtained on each plate, it would be re-tested. The dose-effect curve of compounds and IC50 were fitted and calculated by GraphPad Prism 5.02 (GraphPad Software, San Diego, Calif.).

[3] = system: C57 mice, hot plate pain model; assay: mice hot plate pain model; format: in vivo, mouse; details: 10 mg/kg intraperitoneal, hot plate 55±0.1° C., within 60 minutes
Protocol: SPF-grade C57 male mice were placed at hot plate with constant 55±0.1° C. […] If the pain reaction of mice was observed, the mice were taken out immediately to prevent mice from scalding. […] The test compounds were freshly prepared on the day of administration. 0.9% NaCl physiological saline solution was prepared as solvent for later use. Appropriate amount of test compounds were added into required volume of physiological saline and fully suspended, and the concentration of the drug compound in preparation was 1 mg/ml. The standard volume of administration to mice was 10 ml/kg (or 0.1 ml/10 g). […] The administration volume was 10 ml/kg. […] Hot plate observation index: the reaction time of mice on the hot plate at 55±0.1° C. (Time latency). Measurement and recording were conducted at 3 h before administration and 15 min, 30 min, and 60 min after administration. Maximum possible effect (MPE) % was used to evaluate analgesic effect of each compound, i.e., MPE %=[(Post drug latency-baseline latency)/(30-baseline latency)]×100. MPE % at different time points was recorded. The higher the value of MPE % was, the stronger the analgesic effect of the compound was.

[4] = system: C57BL/6 mice, formalin pain model; assay: mice formalin pain model (Example 44); format: in vivo, mouse; details: 20 mg/kg intraperitoneal, phase I (0-10 min) and phase II (10-60 min), vs saline group
Protocol: Before the start of experiment, the mice were allowed to adapt to the experimental environment for 72 h without fasting. The test drug was administrated by intraperitoneal injection at a dose of 20 mg/kg, and then the mice were placed in a transparent, ventilated plexiglass cylinder for 1 h, and then 20 μl of 4% formalin solution was injected into the left hind plantar of mice of each group by microinjector. The claw pain response of mice was real-time recorded by miniature camera. The number of times of lifting (1 min/time), shaking (2 min/time), and licking (3 min/time) left claw and the time length of licking left claw were used as indicators of pain response, the cumulative scoring and licking time in two stages of 0-10 min (phase I, acute pain phase) and 10-60 min (phase II, inflammatory pain phase) were observed and recorded, and the statistical analysis was conducted.

[5] = molecular target: T2, human TRPA1 channel (Homo sapiens, UniProt O75762); assay: manual patch clamp detection of TRPA1 inhibitory activity; format: cell-based
T2 construct: expressed in transfected cells; host or cells: HEK293
T2 sequence (O75762 whole entry): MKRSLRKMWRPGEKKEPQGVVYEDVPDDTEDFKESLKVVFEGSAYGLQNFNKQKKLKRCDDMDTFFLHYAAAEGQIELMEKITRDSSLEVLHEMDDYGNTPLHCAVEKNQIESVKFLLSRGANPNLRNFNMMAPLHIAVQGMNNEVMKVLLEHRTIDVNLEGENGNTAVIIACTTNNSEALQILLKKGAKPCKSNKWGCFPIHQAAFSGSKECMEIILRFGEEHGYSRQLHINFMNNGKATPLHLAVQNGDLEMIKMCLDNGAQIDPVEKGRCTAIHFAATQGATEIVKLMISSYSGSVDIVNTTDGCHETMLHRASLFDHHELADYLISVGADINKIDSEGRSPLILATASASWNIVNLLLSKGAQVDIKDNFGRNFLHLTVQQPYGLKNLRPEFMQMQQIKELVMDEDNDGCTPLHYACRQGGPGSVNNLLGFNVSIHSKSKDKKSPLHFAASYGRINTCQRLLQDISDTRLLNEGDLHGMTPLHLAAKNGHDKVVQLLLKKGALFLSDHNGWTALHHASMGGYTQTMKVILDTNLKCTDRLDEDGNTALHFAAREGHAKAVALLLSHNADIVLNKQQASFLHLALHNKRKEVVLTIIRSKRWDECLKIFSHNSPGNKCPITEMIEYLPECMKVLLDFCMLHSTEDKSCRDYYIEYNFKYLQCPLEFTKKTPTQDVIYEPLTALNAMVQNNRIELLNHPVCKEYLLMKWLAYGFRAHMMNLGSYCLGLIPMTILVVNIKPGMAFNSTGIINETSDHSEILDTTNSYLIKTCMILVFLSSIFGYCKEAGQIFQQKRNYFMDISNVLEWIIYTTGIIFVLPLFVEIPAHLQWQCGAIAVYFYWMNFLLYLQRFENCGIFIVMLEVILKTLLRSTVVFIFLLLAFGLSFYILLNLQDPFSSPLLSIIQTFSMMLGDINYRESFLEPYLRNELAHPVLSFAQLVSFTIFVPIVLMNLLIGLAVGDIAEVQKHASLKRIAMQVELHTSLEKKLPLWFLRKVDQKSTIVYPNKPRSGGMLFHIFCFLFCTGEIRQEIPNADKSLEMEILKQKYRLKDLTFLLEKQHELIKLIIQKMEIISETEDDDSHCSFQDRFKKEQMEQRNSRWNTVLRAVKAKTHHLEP
Protocol: The HEK293 cell line stably expressing human TRPA1 channel was placed in T75 culture flask with DMEM medium containing 15 μg/mL Blasticidin S HCl, 200 μg/mL Hygromycin B and 10% FBS, and cultured in incubator at 37° C. and 5% CO2. When the cell density reached about 80%, the culture medium was removed, the residue was rinsed with phosphate buffered saline (PBS) without calcium and magnesium. 2 mL of trypsin was added to digest for 2 minutes, and 8 mL of culture medium was added to terminate the digestion. The cells were collected to 15 mL centrifuge tube and centrifuged at 800 rpm for 3 min. After the supernatant was removed, an appropriate volume of extracellular fluid was added to re-suspend the cells.
In manual patch clamp detection, HEKA system (Patch Master software) was used together with EPC-10 amplifier to record the whole cell current of TRPA1 stably transfected cell line at room temperature. intracellular fluid formulation for whole cell recording was as follows (mM): 140 CsCl, 10 HEPES, 5 EGTA, 0.1 CaCl2, 1 MgCl2 (pH 7.2, osmotic pressure 295-300 mOsm); Ca^2+-free extracellular fluid formulation for recording was as follows (mM): 140 NaCl, 5 KCl, 0.5 EGTA, 1 MgCl2, 10 Glucose, 10 HEPES (pH 7.4, osmotic pressure 300-310 mOsm). Glass microelectrode resistance used for patch clamp recording was 2-4 MΩ, the sampling frequency was 10 kHz, the filter frequency was 2.9 kHz, the cell clamp was 0 mV, and the voltage stimulation command (channel protocol) was a linear voltage from −100 mV to +100 mV for 300 ms, then restored to 0 mV clamping potential. The recording was performed every 2 s. The hTRPA1 current was induced by 100 μM AITC. To ensure the accuracy of current recording, the series resistance was used for 60% compensation during recording.
Data recording and current amplitude measurement export were completed by Patch Master software. Cells with sealing impedance lower than 500 MΩ, w were not included in the statistics. The original current data were corrected by software for leakage reduction, and the hTRPA1 current amplitude was measured at +100 mV. The compound dose-effect curve and IC50 were fitted and calculated by GraphPad Prism 5.02 (GraphPad Software, San Diego, Calif.).

[6] = HEK293 cells stably expressing TRPA1, AITC-induced current at +100 mV, read-out: IC50 (μM) on TRPA1 in the patch clamp detection test

Row | IC50 [2, 6] [µM] | IC50 ([2]; read-out: IC50 on TRPA1) [µM] | Structure (SMILES) | further results
1 | – | – | COc1ccc2c(c1)c(CC(=O)O)c(C)n2C(=O)c1ccc(Cl)cc1 [indomethacin, reference compound] | number of appearance of writhing reaction [1]: 28 times
2 | 1 to 5 | < 5 | NCC[C@H](Oc1cccc2ccoc12)c1ccoc1 [Compound IC-24, (S)-3-(benzofuran-7-yloxy)-3-(furan-3-yl)propyl-1-amine] | –
3 | 5 to 10 | – | CNCC[C@H](Oc1cccc2c1CCC2)c1cccs1 [Compound IC-10, (S)-3-(2,3-dihydro-1H-inden-4-yloxy)-N-methyl-3-(2-thienyl)propyl-1-amine] | analgesic effect (MPE %) on hot plate [3]: stronger than those of gabapentin and duloxetine; the IC50 of compound C1/the IC50 of compound IC-10 ([2]; TRPA1, automated patch clamp): about 2.5 fold; analgesic activity, licking time [4]: almost completely inhibited licking claw behavior caused by pain; IC50 ([5]; HEK293 stably expressing human TRPA1, 100 μM AITC, +100 mV): 1.12 µM; ratio of IC50 of S configuration of duloxetine to IC50 of the compound, manual patch clamp ([5]; manual patch clamp): 3.9
4 | 1 to 5 | < 5 | NCC[C@H](Oc1cccc2ccoc12)c1cccs1 [Compound IC-23, (S)-3-(benzofuran-7-yloxy)-3-(thiophen-2-yl) propyl-1-amine] | analgesic effect (MPE %) on hot plate [3]: very potent analgesic effect
5 | 5 to 10 | – | CNCC[C@H](Oc1cccc2ccoc12)c1ccsc1 [Compound IC-2, (S)-3-(benzofuran-7-yloxy)-N-methyl-3-(thiophen-3-yl)propyl-1-amine] | –
6 | 1 to 5 | < 5 | CNCC[C@H](Oc1cccc2ccoc12)c1ccoc1 [Compound IC-3, (S)-3-(benzofuran-7-yloxy)-N-methyl-3-(furan-3-yl)propyl-1-amine] | –
7 | 5 to 10 | – | CNCC[C@H](Oc1cccc2ccoc12)c1cnco1 [Compound IC-29, (S)-3-(benzofuran-7-yloxy)-N-methyl-3-(oxazol-5-yl)propyl-1-amine] | –
8 | 1 to 5 | – | NCC[C@H](Oc1cccc2ccoc12)c1ccco1 [Compound IC-25, (S)-3-(benzofuran-7-yloxy)-3-(furan-2-yl) propyl-1-amine] | –
9 | 1 to 5 | < 5 | CNCC[C@H](Oc1cccc2ccoc12)c1ccco1 [Compound IC-4, (S)-3-(benzofuran-7-yloxy)-N-methyl-3-(furan-2-yl)propyl-1-amine] | –
10 | 5 to 10 | – | NCC[C@H](Oc1cccc2ccoc12)c1ccsc1 [Compound IC-26, (S)-3(benzofuran-7-yloxy)-3-(thiophen-3-yl) propyl-1-amine] | –
11 | 1 to 5 | < 5 | CN(C)CC[C@H](Oc1cccc2ccoc12)c1cccs1 [Compound IC-8, (S)-3-(benzofuran-7-yloxy)-N,N-dimethyl-3-(thiophen-2-yl)propyl-1-amine] | –
12 | – | – | CN1[C@H]2C[C@H](OC(=O)[C@H](CO)c3ccccc3)C[C@@H]1[C@@H](O)C2 [anisodamine, reference compound] | number of appearance of writhing reaction [1]: 27 times

Row | Structure (SMILES) | IC50 [2, 6] [µM] | IC50 ([2]; read-out: IC50 on TRPA1) [µM] | further results
13 | CNCC[C@H](Oc1cccc2ccccc12)c1cccs1 [Duloxetine (R configuration), Duloxetine, reference compound] | 20 to 50 | 48.5 | –
